Values quoted from earlier work in US20090325888A1, “Peptides having a health benefit and compositions comprising them” (priority 2005, published 2009).

Columns and labels:
[1] = target: ACE (Homo sapiens, UniProt P12821)
[2] = test system: hypertensive humans; conditions: in sour milk, Hata 1996

Sequence of ACE (P12821 30-1306, species assumed): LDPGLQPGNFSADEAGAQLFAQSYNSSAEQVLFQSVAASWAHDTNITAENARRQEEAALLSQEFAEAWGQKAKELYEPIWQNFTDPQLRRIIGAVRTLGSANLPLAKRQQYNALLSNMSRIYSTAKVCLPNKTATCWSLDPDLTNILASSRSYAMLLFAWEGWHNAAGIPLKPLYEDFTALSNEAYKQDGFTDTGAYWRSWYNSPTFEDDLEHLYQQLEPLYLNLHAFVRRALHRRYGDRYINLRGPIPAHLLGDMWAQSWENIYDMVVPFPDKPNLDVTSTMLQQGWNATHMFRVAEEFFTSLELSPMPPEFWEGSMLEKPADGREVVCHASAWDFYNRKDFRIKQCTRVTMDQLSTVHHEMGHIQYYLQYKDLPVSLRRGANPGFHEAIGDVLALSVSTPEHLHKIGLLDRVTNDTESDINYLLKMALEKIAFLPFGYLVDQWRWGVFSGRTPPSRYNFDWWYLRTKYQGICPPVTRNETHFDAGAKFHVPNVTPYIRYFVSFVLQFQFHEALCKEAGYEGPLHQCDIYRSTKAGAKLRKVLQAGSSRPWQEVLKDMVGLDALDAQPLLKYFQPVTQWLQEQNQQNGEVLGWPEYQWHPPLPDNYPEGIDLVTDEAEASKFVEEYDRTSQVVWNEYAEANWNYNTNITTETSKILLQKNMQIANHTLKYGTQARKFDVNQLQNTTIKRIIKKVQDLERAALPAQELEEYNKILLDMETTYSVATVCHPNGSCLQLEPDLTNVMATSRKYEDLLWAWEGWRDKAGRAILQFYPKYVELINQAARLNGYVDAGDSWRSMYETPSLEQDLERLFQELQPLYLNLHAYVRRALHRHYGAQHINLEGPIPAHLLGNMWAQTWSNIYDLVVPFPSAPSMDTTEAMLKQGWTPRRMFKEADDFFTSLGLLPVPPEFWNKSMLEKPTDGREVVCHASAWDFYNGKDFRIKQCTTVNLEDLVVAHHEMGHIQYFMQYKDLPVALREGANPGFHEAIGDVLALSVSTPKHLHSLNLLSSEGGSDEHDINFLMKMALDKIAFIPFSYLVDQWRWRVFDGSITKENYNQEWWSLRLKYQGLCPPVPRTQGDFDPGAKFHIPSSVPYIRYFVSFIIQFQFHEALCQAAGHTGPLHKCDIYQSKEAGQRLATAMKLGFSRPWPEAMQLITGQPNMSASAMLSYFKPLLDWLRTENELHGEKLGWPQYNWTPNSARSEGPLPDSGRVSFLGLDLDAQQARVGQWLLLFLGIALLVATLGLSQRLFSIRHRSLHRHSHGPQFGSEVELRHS

Row | in vitro ACE inhibition ([1]; peptides in fermented milk products) | IC50 ([1]; Nakamura 1995, Aryoshi 1993, read-out: IC50 values reported earlier as ACEI peptides) [µM] | Molecule | blood pressure lowering effect [2]
1 | in vitro ACE inhibition |  | CC[C@H](C)[C@H](N)C(=O)N1CCC[C@H]1C(=O)N1CCC[C@H]1C(=O)O [IPP] | blood pressure lowering effect
2 |  | 9.6 | LPP: known ACE inhibiting tripeptide, β-casein f151-153 (UniProt P02666 166-168, looked up, fragment) | 
